In US20100022620A1, “EPITOPE REDUCTION THERAPY” (priority 2006, published 2010):

What was measured:
Neuroblastoma NB1 cells = test: Fluorescence microscopy of sera binding to Neuroblastoma NB1 cells; assay type: cell-based; conditions: NB1 cells treated with various concentrations; some GBS serum samples such as patient 7
Description: This non-specific staining hinders interpretation of results when using whole sera. Cell staining indicated the necessity for a technique which provides isolated antigen, thereby reducing the potential of non-specific staining.

[1] = tested on: total ganglioside and GM1 content; conditions: cerebrum-brainstem; cited from earlier work
[2] = mouse models of GSL storage diseases; cited from earlier work
[3] = cited from earlier work; for CNS penetration: mouse, in vivo; for neurological side effects: treatment of adult mice
GSL biosynthesis = conditions: compared with NB-DNJ; cited from earlier work
RAW cells [4] = test: Orcinol-stained TLC of GM1 in RAW cell extract; assay type: cell-based; conditions: for IC50: GM1 in RAW cells, stated only as comparable to 50 μM, read-out: apparent IC50 estimated from orcinol stained RAW TLC; for levels of GM1 in RAW cells: orcinol staining, 0 to 1000 μM drug (FIG. 15)
Description: A third TLC plate (FIG. 15) with standardised amounts of sample was run in an identical manner to those in FIG. 14 but stained with orcinol.

RAW cells [5] = test: TLC immuno-overlay of RAW cell ganglioside extract with GBS patient serum (anti-GM1 binding); assay type: cell-based; conditions: for GBS patient sera antibody binding to GM1: RAW cells grown in 0 to 1000 μM drug, patient '8' serum (FIG. 13)
Protocol: GSL was extracted from RAW cells incubated in a range of NB-DNJ and NB-DGJ concentrations from 0 to 1 mM and separated by TLC. Extract was run parallel to purified GM1 on duplicate TLC plates. Immuno-overlay was carried out using patient ‘8’ and control ‘4’ sera.
The procedure was then repeated with standardisation of the amount of material loaded onto the gel (FIG. 14). This was calculated using the bicinchoninic acid protein quantification method (Chan et al., 1993). […] No binding was observed when the overlay was conducted with control serum, indicating specificity of this effect to GBS auto-antibody.

PC12 cells [6] = test: HPLC analysis of PC12 gangliosides; assay type: cell-based; conditions: for ganglioside depletion in PC12 cells: HPLC (FIG. 17)
Protocol: In the absence of detectable binding by TLC immuno-overlay, a new technique was necessary to analyse the identity and relative abundance of gangliosides present on PC12 cells. To this end, HPLC was carried out on ganglioside extracted from PC12 cells grown in a range of NB-DGJ and NB-DNJ concentrations from 0-1 mM.

GSL levels = conditions: mice, cited from earlier work
PC12 cells [7] = test: Anti-ganglioside antibody / complement-mediated lysis of PC12 cells (LDH release); assay type: cell-based
Protocol: (§1) PC12 cells were grown under standard undifferentiated conditions with and without a range of NB-DNJ concentrations (1, 5, 10, 50, 100 and 500 μM). Cells were grown in flasks for immunocytology and analytical studies on ganglioside levels and also in 96-well tissue culture plates for antibody mediated lysis studies. Time points examined were day 0, 1, 2 and 3, and 2 and 3 days post-compound wash out.
The consequences of reduced anti-ganglioside antibody binding treated cells were evaluated by measuring antibody-mediated cytotoxicity (FIGS. 4 and 5). Thus, cells from each day and NB-DNJ concentration were also assayed for anti-ganglioside antibody-mediated cytotoxicity. Lysis studies were conducted using anti-ganglioside antibodies in conjunction with fresh human serum as a source of complement. Cell viability was quantitated by colourimetric assay measuring LDH release upon cell lysis.
After coating onto 96 well tissue culture plates (5×10^3 cells/well), the cells were incubated with anti-GT1b antibody at 10 μg/ml for 1 hour at room temperature. Then, 10% human serum was added as a source of complement for a further hour at 37° C. Complement-mediated cell lysis was measured using a Cytotox 96 cytotoxic assay kit (Promega), following the instructions supplied. LDH released upon cell lysis was measured by a colourimetric assay; a tetrazolium salt is converted into a red formazan product. […]

PC12 cells [8] = test: Immunocytology: anti-GT1b antibody binding to PC12 cells by flow cytometry; assay type: cell-based; conditions: for reduction in anti-ganglioside antibody binding: 3 days of exposure, anti-GT1b mAb
Protocol: as §1
PC12 cells were grown in DMEM containing 7.5% FCS and 7.5% horse serum. The medium was supplemented with 0, 1, 5, 10, 50, 100 or 500 μM NB-DNJ and the cells cultured for 3 days. The media was then replaced with DMEM without NB-DNJ and the cells cultured for a further 3 days. At days 0, 1, 2, 3 and days 2 and 3 post NB-DNJ treatment, cells were harvested and ganglioside levels assessed by analysing anti-ganglioside antibody binding using flow cytometry. Briefly, 1×10^5 cells were stained with 10 μg/ml of a murine anti-GT1b mAb for 1 hour at room temperature. Binding was then detected by a FITC labelled antibody with specificity for mouse IgG. Binding is expressed in FIGS. 2 and 3 as the mean fluorescence of triplicate experiments. To allow any reduction in ganglioside levels to be clearly visualised at each time point, the mean fluorescence is shown as a percentage of that at day 0. Error bars indicate sem.

PC12 cells [9] = test: HPLC analysis of GSL levels in NB-DNJ treated PC12 cells; assay type: cell-based; conditions: day 3, PC12 cells, preliminary analysis
Protocol: as §1
HPLC analysis of the treated and untreated cells was performed to determine the extent of GSL depletion that results from NB-DNJ treatment.

sialyltransferase = conditions: cited from earlier work
[10] = target: T1, human α-1,3-fucosyltransferase V (Homo sapiens, UniProt Q11128); conditions: in the presence of guanosine diphosphate (GDP); cited from earlier work
T1 sequence (Q11128 1-374): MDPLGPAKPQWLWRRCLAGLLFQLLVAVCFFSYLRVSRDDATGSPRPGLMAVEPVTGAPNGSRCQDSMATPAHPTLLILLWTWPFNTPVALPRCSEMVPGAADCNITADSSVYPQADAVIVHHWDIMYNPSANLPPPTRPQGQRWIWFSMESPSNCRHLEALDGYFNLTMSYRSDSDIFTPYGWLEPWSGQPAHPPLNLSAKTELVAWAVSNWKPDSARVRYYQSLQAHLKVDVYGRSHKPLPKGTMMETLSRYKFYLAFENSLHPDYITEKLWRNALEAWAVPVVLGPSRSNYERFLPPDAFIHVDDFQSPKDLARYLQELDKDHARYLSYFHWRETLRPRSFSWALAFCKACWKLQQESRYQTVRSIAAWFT

rat recombinant α-2,6-ST = target: T2, rat recombinant α-2,6-ST (Rattus norvegicus, UniProt P13721); conditions: cited from earlier work
T2 sequence (P13721 1-403): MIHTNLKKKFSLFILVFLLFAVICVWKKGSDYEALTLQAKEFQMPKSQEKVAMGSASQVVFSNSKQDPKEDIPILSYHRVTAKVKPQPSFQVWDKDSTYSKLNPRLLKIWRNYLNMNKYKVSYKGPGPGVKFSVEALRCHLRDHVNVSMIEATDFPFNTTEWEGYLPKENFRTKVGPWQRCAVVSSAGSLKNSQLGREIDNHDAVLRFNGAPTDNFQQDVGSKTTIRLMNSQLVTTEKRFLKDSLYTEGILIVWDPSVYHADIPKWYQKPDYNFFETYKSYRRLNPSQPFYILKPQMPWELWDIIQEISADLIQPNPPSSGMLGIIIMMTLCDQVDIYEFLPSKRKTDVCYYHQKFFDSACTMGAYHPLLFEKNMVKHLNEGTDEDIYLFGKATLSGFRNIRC

rat recombinant α-2,3-ST = conditions: cited from earlier work
[11] = RAW cells, standardised amount of material (FIG. 14)

Q: What does the source list for `CCCCN1C[C@H](O)[C@@H](O)[C@@H](O)[C@H]1CO` [NB-DGJ, N-butyldeoxygalactonojirimycin]?
A: fluorescence of serum binding on drug-treated cells (Neuroblastoma NB1 cells): decrease in fluorescence; total ganglioside and GM1 content [1]: marked reduction; tolerability [2]: very well tolerated; CNS penetration [3]: penetrate the CNS; neurological side effects [3]: not to cause neurological side effects; inhibition of GSL biosynthesis (GSL biosynthesis): comparably to NB-DNJ; IC50 (RAW cells [4]): ~50 µM; levels of GM1 in RAW cells (RAW cells [4]): drug dependent decrease; GBS patient sera antibody binding to GM1 (RAW cells [5]): drug dependent decrease; drug dependent decrease in antibody binding to GM1, comparison of the two drugs (RAW cells [5]; RAW cells, FIG. 13): slightly more efficient; decrease of patient anti-GM1 antibody binding, comparison of the two drugs (RAW cells [5]; [11]): more pronounced; patient anti-GM1 antibody binding as drug concentration was increased (RAW cells [5]; [11]): progressively lower levels; ganglioside depletion in PC12 cells (PC12 cells [6]; 50 μM): significant ganglioside depletion; ganglioside depletion in PC12 cells (PC12 cells [6]; 1 mM): Further depletion; inhibitor potency, comparison of the two drugs (PC12 cells [6]; PC12 cells, HPLC): more a potent inhibitor

Q: With `CCCCN1C[C@H](O)[C@@H](O)[C@H](O)[C@H]1CO` [NB-DNJ, N-butyldeoxynojirimycin] as the molecule, how does the “time at which effect on GSL levels stabilizes” value (GSL levels) read?
A: 10 days

Q: What about the GSL levels (GSL levels; within a day of treatment) of the same molecule?
A: measurable decrease

Q: What about the “fluorescence of serum binding on drug-treated cells” value (Neuroblastoma NB1 cells) of the same molecule?
A: decrease in fluorescence

Q: And the “protection from complement mediated lysis” value (PC12 cells [7]; 100 uM)?
A: approximately 60%

Q: And the “protection from complement mediated lysis” value (PC12 cells [7]; 500 uM)?
A: ~80%

Q: And the anti-ganglioside antibody binding (PC12 cells [8]; 50 μM and higher concentrations)?
A: significant time dependent reduction

Q: And the “reduction in anti-ganglioside antibody binding” value (PC12 cells [8]; 100 μM)?
A: 70%

Q: What about the “reduction in anti-ganglioside antibody binding” value (PC12 cells [8]; 500 μM) of the same molecule?
A: 90%

Q: What about the “anti-ganglioside antibody binding after wash out of the compound” value (PC12 cells [8]; by day 3 post wash out) of the same molecule?
A: returning to the levels of untreated cells

Q: And the GSL levels (PC12 cells [9])?
A: 10-20 % of control

Q: And the CNS penetration [3]?
A: penetrate the CNS

Q: What about the neurological side effects [3] of the same molecule?
A: not to cause neurological side effects

Q: And the IC50 (RAW cells [4])?
A: ~50 µM

Q: What about the “levels of GM1 in RAW cells” value (RAW cells [4]) of the same molecule?
A: drug dependent decrease

Q: And the “GBS patient sera antibody binding to GM1” value (RAW cells [5])?
A: drug dependent decrease

Q: And the “patient anti-GM1 antibody binding as drug concentration was increased” value (RAW cells [5]; [11])?
A: progressively lower levels

Q: And the “ganglioside depletion in PC12 cells” value (PC12 cells [6]; 50 μM)?
A: significant ganglioside depletion

Q: What about the “ganglioside depletion in PC12 cells” value (PC12 cells [6]; 1 mM) of the same molecule?
A: Further depletion

Q: For `C[C@@H]1O[C@@H](O[C@H]2[C@H](O[C@H]3[C@H](O[C@H]4CC[C@@]5(C)[C@@H](CC[C@]6(C)[C@@H]5CC=C5[C@@H]7CC(C)(C)C[C@@H](O)[C@]7(C)CC[C@]56C)[C@@]4(C)CO)O[C@H](C(=O)O)[C@@H](O)[C@@H]3O)O[C@H](CO)[C@H](O)[C@@H]2O)[C@H](O)[C@H](O)[C@H]1O` [Soyasaponin I], which sialyltransferase inhibition (sialyltransferase) is on record?
A: potent and specific

Q: For `CCCO[C@H]1O[C@H](CO)[C@@H](O[C@@H]2O[C@H](CO)[C@H](O)[C@H](O)[C@H]2O)[C@H](OCCN2C(C)C(O)C(O)C(O)C2CO)[C@H]1NC(C)=O` (stereo partly drawn) [propyl 2-acetamido-2-deoxy-4-O-(β-D-galactopyranosyl)-3-O-(2-(N-(β-L-homofaconojirimycinyl))ethyl)-α-D-glucopyranoside], which “inhibition of human α-1,3-fucosyltransferase V” value [10] is on record?
A: effective inhibitor

Q: For cytidin-5′-yl sialylethylphosphonate, which IC50 (rat recombinant α-2,6-ST) is on record?
A: 340 µM

Q: And the IC50 (rat recombinant α-2,3-ST)?
A: 47 µM
